Experimental data as given in PubChem BioAssay AID330 (DTP/NCI, 2004).
Several values for one entry are separate records, joined by “and”; a condition that tells them apart may be missing. Equal entries are not always repeated. Toxic doses and inconclusive results are not listed. Peptide text beside a SMILES is read from it.

System: P388 leukemia ip, CD2F1 mice, survival T/C
Experiment: NCI In Vivo Anticancer Drug Screen. Data for tumor model P388 Leukemia (intraperitoneal) in CD2F1 (CDF1) mice
Conditions: endpoint: median survival time, higher = longer survival
Summary of the method: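 Mice carrying the transplanted tumor received test compound or vehicle. Survival was recorded in each group, and the value is the treated-group measurement divided by that of the vehicle-treated control group.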

[1] = dose: 12.5 mg/kg/injection, schedule: Q01DX009 (ip), vehicle: distilled water + Tween-80
[2] = dose: 25.0 mg/kg/injection, schedule: Q01DX009 (ip), vehicle: distilled water + Tween-80
[3] = dose: 50.0 mg/kg/injection, schedule: Q01DX009 (ip), vehicle: distilled water + Tween-80
[4] = dose: 100.0 mg/kg/injection, schedule: Q01DX009 (ip), vehicle: distilled water + Tween-80
[5] = dose: 100.0 mg/kg/injection, schedule: Q01DX001 (ip), vehicle: saline with Tween-80
[6] = dose: 200.0 mg/kg/injection, schedule: Q01DX001 (ip), vehicle: saline with Tween-80
[7] = dose: 400.0 mg/kg/injection, schedule: Q01DX001 (ip), vehicle: saline with Tween-80
[8] = dose: 50.0 mg/kg/injection, schedule: Q01DX009 (ip), vehicle: saline
[9] = dose: 100.0 mg/kg/injection, schedule: Q01DX009 (ip), vehicle: saline
[10] = dose: 60.0 mg/kg/injection, schedule: Q01DX005 (ip), vehicle: saline with Tween-80
[11] = dose: 120.0 mg/kg/injection, schedule: Q01DX005 (ip), vehicle: saline with Tween-80
[12] = dose: 240.0 mg/kg/injection, schedule: Q01DX005 (ip), vehicle: saline with Tween-80
[13] = dose: 50.0 mg/kg/injection, schedule: Q01DX005 (ip), vehicle: Klucel (hydroxypropylcellulose) (HPC)
[14] = dose: 100.0 mg/kg/injection, schedule: Q01DX005 (ip), vehicle: Klucel (hydroxypropylcellulose) (HPC)
[15] = dose: 200.0 mg/kg/injection, schedule: Q01DX005 (ip), vehicle: Klucel (hydroxypropylcellulose) (HPC)
[16] = dose: 12.5 mg/kg/injection, schedule: Q01DX009 (ip), vehicle: saline
[17] = dose: 25.0 mg/kg/injection, schedule: Q01DX009 (ip), vehicle: saline
[18] = dose: 100.0 mg/kg/injection, schedule: Q04DX002 (ip), vehicle: saline with Tween-80
[19] = dose: 200.0 mg/kg/injection, schedule: Q04DX002 (ip), vehicle: saline with Tween-80
[20] = dose: 400.0 mg/kg/injection, schedule: Q04DX002 (ip), vehicle: saline with Tween-80
[21] = dose: 60.0 mg/kg/injection, schedule: Q01DX005 (ip), vehicle: Klucel (hydroxypropylcellulose) (HPC)
[22] = dose: 120.0 mg/kg/injection, schedule: Q01DX005 (ip), vehicle: Klucel (hydroxypropylcellulose) (HPC)
[23] = dose: 240.0 mg/kg/injection, schedule: Q01DX005 (ip), vehicle: Klucel (hydroxypropylcellulose) (HPC)

## CC(=O)NCc1cc(C)c(CC#N)cc1CC#N
dose: 6.25 mg/kg/injection, schedule: Q01DX009 (ip), vehicle: distilled water + Tween-80
  T/C: 100 % of control
[1]
  T/C: 89 % of control and 91 % of control
[2]
  T/C: 103 % of control
[3]
  T/C: 94 % of control
[4]
  T/C: 94 % of control

## O=C(N/N=C/c1cc(Br)cc(Br)c1O)c1ccccc1
[5]
  T/C: 96 % of control
[6]
  T/C: 96 % of control
[7]
  T/C: 92 % of control

## O=C(N/N=C/c1cc(Br)cc(Br)c1[O-])c1ccccc1.O=C(N/N=C/c1cc(Br)cc(Br)c1[O-])c1ccccc1.[Fe+2]
[5]
  T/C: 86 % of control
[6]
  T/C: 86 % of control
[7]
  T/C: 93 % of control

## O=C(CCSc1ncnc2nc[nH]c12)c1ccccc1
[8]
  T/C: 94 % of control
[9]
  T/C: 92 % of control
dose: 200.0 mg/kg/injection, schedule: Q01DX009 (ip), vehicle: saline
  T/C: 86 % of control

## COc1ccc(OC)c(NC(=O)CCCC(=O)CC(=O)c2cccnc2)c1
[10]
  T/C: 103 % of control
[11]
  T/C: 103 % of control
[12]
  T/C: 101 % of control

## COCCN[C@@H]1C[C@@](C)(O)Cc2cc3c(c(O)c21)C(=O)c1c(O)cc2c(c1C3=O)O[C@H]1O[C@]2(C)[C@@H](O)[C@H](N(C)C)[C@H]1O
dose: 2.5 mg/kg/injection, schedule: Q01DX009 (ip), vehicle: other
  T/C: 105 % of control
dose: 5.0 mg/kg/injection, schedule: Q01DX009 (ip), vehicle: other
  T/C: 105 % of control
dose: 7.5 mg/kg/injection, schedule: Q01DX009 (ip), vehicle: other
  T/C: 120 % of control
dose: 10.0 mg/kg/injection, schedule: Q01DX009 (ip), vehicle: other
  T/C: 111 % of control
dose: 60.0 mg/kg/injection, schedule: Q01DX009 (ip), vehicle: other
  T/C: 154 % of control

## CC(C)CC(C(=O)O)N(C)C(=O)OC(C)(C)C (stereo not given)
[13]
  T/C: 101 % of control
[14]
  T/C: 93 % of control
[15]
  T/C: 99 % of control

## NC1(c2ccccc2)CCCCC1
[16]
  T/C: 99 % of control
[17]
  T/C: 106 % of control
[8]
  T/C: 105 % of control

## CCCCCC(CN(C)C)C(=O)/C=C/c1ccc(O)cc1 (stereo not given)
[16]
  T/C: 88 % of control
[17]
  T/C: 89 % of control
[8]
  T/C: 101 % of control and 93 % of control
[9]
  T/C: 113 % of control

## CCOC(=O)c1ccccc1-n1nnc(C#N)c1N
[13]
  T/C: 105 % of control
[14]
  T/C: 115 % of control

## Cc1ccccc1C1NC(c2ccccc2C)C2CCCC1C2=O (stereo not given)
dose: 100.0 mg/kg/injection, schedule: Q04DX003 (ip), vehicle: saline
  T/C: 89 % of control
dose: 200.0 mg/kg/injection, schedule: Q04DX003 (ip), vehicle: saline
  T/C: 96 % of control
dose: 400.0 mg/kg/injection, schedule: Q04DX003 (ip), vehicle: saline
  T/C: 93 % of control

## O=C(CC1(O)C(=O)Nc2ccccc21)c1ccc(Br)cc1 (stereo not given)
dose: 50.0 mg/kg/injection, schedule: Q01DX005 (ip), vehicle: saline with Tween-80
  T/C: 108 % of control
dose: 100.0 mg/kg/injection, schedule: Q01DX005 (ip), vehicle: saline with Tween-80
  T/C: 103 % of control
dose: 200.0 mg/kg/injection, schedule: Q01DX005 (ip), vehicle: saline with Tween-80
  T/C: 100 % of control

## C[C@@H]1CC[C@@]2(OC1)O[C@H]1C[C@H]3[C@@H]4CC=C5C=CCC[C@]5(C)[C@H]4CC[C@]3(C)[C@H]1[C@@H]2C
dose: 2.25 mg/kg/injection, schedule: Q01DX005 (ip), vehicle: Klucel (hydroxypropylcellulose) (HPC)
  T/C: 100 % of control
dose: 4.5 mg/kg/injection, schedule: Q01DX005 (ip), vehicle: Klucel (hydroxypropylcellulose) (HPC)
  T/C: 100 % of control
dose: 9.0 mg/kg/injection, schedule: Q01DX005 (ip), vehicle: Klucel (hydroxypropylcellulose) (HPC)
  T/C: 105 % of control
dose: 18.0 mg/kg/injection, schedule: Q01DX005 (ip), vehicle: Klucel (hydroxypropylcellulose) (HPC)
  T/C: 100 % of control
dose: 36.0 mg/kg/injection, schedule: Q01DX005 (ip), vehicle: Klucel (hydroxypropylcellulose) (HPC)
  T/C: 98 % of control

## COc1cc(OC)c(C(C)=O)c(O)c1C
[1]
  T/C: 94 % of control
[2]
  T/C: 101 % of control
[3]
  T/C: 98 % of control
[4]
  T/C: 99 % of control
dose: 200.0 mg/kg/injection, schedule: Q01DX009 (ip), vehicle: distilled water + Tween-80
  T/C: 109 % of control
dose: 400.0 mg/kg/injection, schedule: Q01DX009 (ip), vehicle: distilled water + Tween-80
  T/C: 100 % of control

## Nc1ncnc(N)c1NC(=O)c1cc(Cl)c(OCc2ccccc2)c(Cl)c1
[10]
  T/C: 101 % of control
[11]
  T/C: 95 % of control
[12]
  T/C: 94 % of control

## CN(N=O)C(=O)NCC1OC(n2cnc3c(=O)[nH]cnc32)C(O)C1O (stereo not given)
dose: 50.0 mg/kg/injection, schedule: Q01DX005 (ip), vehicle: saline
  T/C: 100 % of control
dose: 100.0 mg/kg/injection, schedule: Q01DX005 (ip), vehicle: saline
  T/C: 105 % of control
dose: 200.0 mg/kg/injection, schedule: Q01DX005 (ip), vehicle: saline
  T/C: 121 % of control

## NC(Cc1ccccc1)C(=O)NCC(=O)NC(Cc1ccccc1)C(=O)NCC(=O)O (stereo not given) (H-FGFG-OH; configuration not given here)
[13]
  T/C: 96 % of control
[14]
  T/C: 98 % of control
[15]
  T/C: 102 % of control

## CC(=O)Oc1c(C)c(OC(C)=O)c2[nH]c(Cl)c(C=O)c2c1OC(C)=O
dose: 100.0 mg/kg/injection, schedule: Q01DX001 (ip), vehicle: Klucel (hydroxypropylcellulose) (HPC)
  T/C: 108 % of control
dose: 200.0 mg/kg/injection, schedule: Q01DX001 (ip), vehicle: Klucel (hydroxypropylcellulose) (HPC)
  T/C: 102 % of control

## Cc1ccc2nc(N(C)C)cc(N(C)C)c2c1
dose: 6.25 mg/kg/injection, schedule: Q01DX009 (ip), vehicle: Klucel (hydroxypropylcellulose) (HPC)
  T/C: 99 % of control
dose: 12.5 mg/kg/injection, schedule: Q01DX009 (ip), vehicle: Klucel (hydroxypropylcellulose) (HPC)
  T/C: 110 % of control
dose: 25.0 mg/kg/injection, schedule: Q01DX009 (ip), vehicle: Klucel (hydroxypropylcellulose) (HPC)
  T/C: 103 % of control

## COc1cc2c(cc1OC)C1=[N+](CC2)C2=C(CC1)C(=O)CCC2
dose: 25.0 mg/kg/injection, schedule: Q01DX005 (ip), vehicle: Klucel (hydroxypropylcellulose) (HPC)
  T/C: 94 % of control
[13]
  T/C: 97 % of control
[14]
  T/C: 99 % of control
[15]
  T/C: 93 % of control

## Cn1c(/C=N/NC2=NCCCN2)cnc1[N+](=O)[O-]
[18]
  T/C: 97 % of control
[19]
  T/C: 104 % of control
[20]
  T/C: 107 % of control

## CC(=O)OCc1ccc(Cl)c(Cl)c1
dose: 100.0 mg/kg/injection, schedule: Q04DX003 (ip), vehicle: saline with Tween-80
  T/C: 100 % of control
dose: 200.0 mg/kg/injection, schedule: Q04DX003 (ip), vehicle: saline with Tween-80
  T/C: 100 % of control
dose: 400.0 mg/kg/injection, schedule: Q04DX003 (ip), vehicle: saline with Tween-80
  T/C: 104 % of control

## c1cnc(NC(Nc2ncccn2)C2CCCCC2)nc1
[21]
  T/C: 100 % of control
[22]
  T/C: 100 % of control
[23]
  T/C: 94 % of control

## Cc1oc2ccccc2c(=O)c1CO
[10]
  T/C: 104 % of control
[11]
  T/C: 100 % of control
[12]
  T/C: 100 % of control

## C(=C\c1ccc2ccccc2n1)/c1ccc2c(c1)OCO2
dose: 100.0 mg/kg/injection, schedule: Q01DX009 (ip), vehicle: saline with Tween-80
  T/C: 105 % of control
dose: 200.0 mg/kg/injection, schedule: Q01DX009 (ip), vehicle: saline with Tween-80
  T/C: 95 % of control
dose: 400.0 mg/kg/injection, schedule: Q01DX009 (ip), vehicle: saline with Tween-80
  T/C: 110 % of control

## Cn1ncc2c(Nc3ccc(F)cc3)c3ccccc3nc21
[21]
  T/C: 97 % of control
[22]
  T/C: 95 % of control
[23]
  T/C: 90 % of control

## O=C1c2ccccc2C(=O)N1c1nncs1
[18]
  T/C: 99 % of control
[19]
  T/C: 99 % of control
[20]
  T/C: 101 % of control
